The numbers were not newly measured in patent US20210170044A1, “SYSTEMS AND METHODS FOR LYSOSOME INDUCED IMMUNOGENIC CELL DEATH” (Antigenesis LLC, priority 2017, published 2021), which cites them from elsewhere.

This data set has as its system advanced hepatocellular carcinoma. The note with it: patients with advanced hepatocellular carcinoma receiving 5-fluorouracil; pravastatin as well vs control group.

Consider `O=c1[nH]cc(F)c(=O)[nH]1` [5-fluoroucacil], for which the median survival time is reported as 9 months.
